Data published in PMC12163317, “The food effect on the pharmacokinetics of TQB3616 capsule in Chinse healthy subjects: a randomized, open-label, single-center, two-period, two-sequence crossover phase I clinical trial” (Frontiers in Pharmacology, 2025).

Columns and labels:
[1] = Food effect on pharmacokinetics of TQB3616 capsule, crossover phase I trial, plasma concentration by LC-MS/MS; assay type: in vivo, human; details: for AUC_Extrap / t1/2 / λZ / AUC0-t / AUC0-∞ / Cmax: mean ± SD; for AUC0-t / AUC0-∞ / Cmax / Tmax: single oral 180 mg; for Tmax: median (min, max)
Method: This was a randomized, open-label, single-center, two-period, two-sequence crossover early phase I clinical trial to evaluate the food effect on the pharmacokinetics of TQB3616 capsules in healthy subjects. The trial was conducted at Affiliated Hospital of Changchun University of Chinese Medicine and the protocol was approved by the Ethics Committee of the Affiliated Hospital of Changchun University of Chinese Medicine (CCZYFYLL 2021-006). The ethical approval process of this study complied with the requirements of Good Clinical Practice (GCP), the Declaration of Helsinki and the relevant domestic laws and regulations. All subjects had provided written informed consent before the study.
Subjects were admitted to the research center 2 days prior to drug administration and randomly assigned to either Group A or Group B at a 1:1 ratio. Group A, subjects received the study drug under fasted condition in period one and under fed condition in period 2. Conversely, in Group B, subjects received the study drug under fed conditions in the first period and under fasting conditions in the second period. The study employed a crossover design, with a washout period of at least 19 days between the two treatment periods.
The study protocol mandated that subjects take the medication after an overnight fast lasting at least 10 h. In a fasted condition, subjects consumed a 180 mg TQB3616 capsule with 240 mL of warm water, ensuring they remained and fasted for an additional 4 h post-dose. In a fed condition, subjects consumed a 180 mg TQB3616 capsule with 240 mL of warm water after consuming a high-fat, high-calorie breakfast (approximately 800–1,000 kcal, Supplementary table) 30 min prior to adminstration, subjects began their breakfast and completed the meal within the next 30 min. Capsules were swallowed whole without chewing.
Pharmacokinetic (PK) samples were collected at specific times: 0 h (within 60 min prior to dosing), 1 h, 2 h, 4 h, 5 h, 5.5 h, 6 h, 6.5 h, 7 h, 7.5 h, 8 h, 12 h, 24 h, 48 h, 72 h, 120 h, 168 h and 264 h post-dosing, totaling 18 sampling points. At each scheduled time, approximately 3 mL of blood was collected with a pre-chilled EDTA-K2 tubes. After gentle 180° inversion (×4) for homogenization, samples were immediately transferred to an ice bath. All blood specimens were centrifuged at 3,500 rpm for 10 min within 30 min of collection. The obtained plasma was aliquoted and stored at −80°C ± 10°C until batch analysis.
(§1) Plasma concentrations of TQB3616 were quantified using a validated liquid chromatography-tandem mass spectrometry (LC-MS/MS) method. Calibration standards and quality control samples (K2-EDTA plasma matrix) were prepared using [D8]-TQB3616 as the internal standard. Protein precipitation extraction from 100 μL plasma was performed followed by chromatographic separation on a C18 column (50 × 2.1 mm, 1.7 μm). Mass transitions m/z 447.1→431.3 (TQB3616) and m/z 455.2→439.3 (IS) were monitored for quantification.
Phoenix WinNonlin (version 8.3.4) was used to calculate pharmacokinetic parameters, including: […] (Tmax), area under the curve (AUC) from time zero to the last measurable concentration (AUC0-t), AUC from time zero to observed infinity (AUC0- ∞ ), peak concentration (Cmax),terminal half-life of analyte in plasma (t1/2), terminal rate constant (λz), and extrapolated AUC percentage (AUCextrp (%)). Other statistical analyses were performed using SAS (version 9.4). All tests were considered statistically significant at p < 0.05.
Based on the Pharmacokinetics Parameter Set (PKPS), main parameters were summarized by fasting/fed groups using sample size, arithmetic mean, standard deviation, coefficient of variation, median, minimum, maximum, as well as geometric mean and geometric coefficient of variation.
For the food-effect equivalence analysis set (BES), a mixed-effects model analyzed natural log-transformed Cmax, AUC0-t, and AUC0- ∞ . […]

[2] = Safety analysis, adverse events (CTCAE version 5.0) in the food-effect trial; assay type: in vivo, human
Source text: The safety analysis utilized the safety data set (SS), comprising all subjects receiving TQB3616 with recorded safety assessments. The safety assessments indicators included adverse events, serious adverse events, laboratory tests (routine blood, blood biochemistry, urinalysis, and coagulation), vital signs ([…]), 12-lead electrocardiogram, and physical examination. The frequency, type, extent, and comorbid medications of all treatment-emergent adverse events (TEAEs) occurring during treatment were recorded systematically documented. For severity, adverse events were rated and documented using the National Cancer Institute-Common Terminology Criteria for Adverse Events (CTCAE) version 5.0. The Medical Dictionary for Regulatory Activities (MedDRA) was used to encode the classification of adverse events. Any adverse events observed during the trial were monitored until resolution, return to baseline levels, or stabilization the subject’s condition.

[3] = Stability of TQB3616 in LC-MS/MS method validation (K2-EDTA plasma matrix); assay type: in vitro ADME
Method: as §1
This study undertook a comprehensive validation of the LC-MS/MS methodology for quantifying TQB3616. The validated quantitative range for TQB3616 was established between 0.3 ng/mL and 300 ng/mL. […] Sample dilution integrity was confirmed at 20-fold dilution.

[4] = parameters: method as in unpublished data; details: ref unpublished data, cited from earlier work
CDK4/6 = system: CDK4/6; parameters: method as in unpublished data; details: preclinical; ref unpublished data; cited from earlier work
[5] = system: HR+/HER2-breast cancer MCF-7 cells; parameters: method as in unpublished data; details: in vitro; ref unpublished data; cited from earlier work
MCF-7 tumor = system: MCF-7 tumor; parameters: method as in unpublished data; details: ref unpublished data, cited from earlier work
[6] = parameters: method as in unpublished data; details: ref unpublished data; cited from earlier work
[7] = coefficient of variation, equivalence analysis fed vs fasted
[8] = both periods, 16 subjects in safety set

## CC(C)c1c2cc(-c3nc(Nc4ccc(N5CCNCC5)cn4)ncc3F)ccc2nn1C [TQB3616]
[1]; Fasted (n = 11)
  AUC_Extrap: 7.57 ± 3.29%
  t1/2: 71.27 ± 11.83 h
  λZ: 0.01 ± 0.002 h⁻¹
  AUC0-t: 3,634.80 ± 2,174.18 h ^a ng/mL
  AUC0-∞: 3,920.86 ± 2,325.20 h ^a ng/mL
  Cmax: 60.39 ± 37.17 ng/mL
  Tmax: 6.0 (5.0, 24.0) h
[1]; Fasted, n = 11
  AUC0-t GeoMean: 3,303.72 h*ng/mL
  AUC0-∞ GeoMean: 3,584.79 h*ng/mL
  Cmax GeoMean: 48.47 ng/mL
[1]; Fed (n = 13)
  AUC_Extrap: 6.97 ± 2.90%
  t1/2: 68.95 ± 10.68 h
  λZ: 0.01 ± 0.002 h⁻¹
  AUC0-t: 5305.30 ± 1948.11 h ^a ng/mL
  AUC0-∞: 5710.59 ± 2,100.68 h ^a ng/mL
  Cmax: 75.39 ± 28.34 ng/mL
  Tmax: 7.0 (7.0, 12.0) h
[1]; Fed, n = 13
  AUC0-t GeoMean: 4792.51 ng·h/mL
  AUC0-∞ GeoMean: 5130.98 ng·h/mL
  Cmax GeoMean: 71.76 ng/mL
[1]; [7]
  AUC0-t CV: 26.51%
  AUC0-∞ CV: 26.07%
  Cmax CV: 53.42%
[1]; fasted as the reference
  AUC0-t Fed/Fasted Ratio (geometric mean ratio): 145.06%
  AUC0-∞ Fed/Fasted Ratio (geometric mean ratio): 143.13%
  Cmax Fed/Fasted Ratio (geometric mean ratio): 148.04%
[1]; fasting
  AUC0-t: 3,634.80 ± 2,174.18 h·ng/mL
  AUC0-∞: 3,920.86 ± 2,325.20 h·ng/mL
[1]; fed compared with fasted
  increase of AUC0-t by food intake: 45.95%
  increase of AUC0-∞ by food intake: 45.65%
  rise in AUC with a meal: 45%
[1]; fed
  AUC0-t: 5305.30 ± 1948.11 ng·h/mL
  AUC0-∞: 5710.59 ± 2,100.68 h·ng/mL
[1]; females
  postprandial increase in AUC: 69.9%
  postprandial increase in Cmax: 33.5%
[1]; males
  postprandial increase in AUC: 38.2%
  postprandial increase in Cmax: 20.9%
[2]; Fasted
  TEAE Abdominal discomfort, n (%): 7.42%
  TEAE Abdominal pain, n (%): 4.94%
  TEAE Blood bilirubin increased, n (%): 1.23%
  TEAE Blood triglycerides increased, n (%): 7.42%
  TEAE Diarrhea, n (%): 13.58%
  TEAE Nausea, n (%): 7.42%
  TEAE Protein total decreased, n (%): 1.23%
  TEAE Thrombocyte count decreased, n (%): 1.23%
  TEAE White blood cells urine positive, n (%): 2.47%
  TEAE emesis, n (%): 6.17%
  TEAE laboratory tests, n (%): 13.58%
[2]; Fed
  TEAE Abdominal discomfort, n (%): 11.11%
  TEAE Abdominal pain, n (%): 2.47%
  TEAE Blood bilirubin increased, n (%): 1.23%
  TEAE Blood bilirubin unconjugated increased, n (%): 1.23%
  TEAE Blood triglycerides increased, n (%): 4.94%
  TEAE Diarrhea, n (%): 12.35%
  TEAE Gastrointestinal Disorders, n (%): 33.33%
  TEAE Head discomfort, n (%): 1.23%
  TEAE Nausea, n (%): 3.7%
  TEAE Nervous System Disorders, n (%): 1.23%
  TEAE Protein total decreased, n (%): 1.23%
  TEAE Red blood cells urine positive, n (%): 1.23%
  TEAE Urinary occult blood positive, n (%): 2.47%
  TEAE emesis, n (%): 3.7%
[2]; both periods
  adverse events related to the drug: 77
  drug-related adverse events of grade II: two
  serious adverse events, deaths, unexpected serious adverse reactions: No serious adverse events, deaths, or unexpected serious adverse reactions occurred
[2]; [8]
  subjects with adverse events: 16
  total adverse events (AEs): 81
[2]; fasted period (range: 0–10 h)
  average time to spontaneous resolution of gastrointestinal reactions: 3.2 h
[2]; fasted period (range: 1.7–7.3 h)
  average time of occurrence of gastrointestinal reactions post-dosing: 4.2 h
[2]; fed period (range: 0–9.8 h)
  average time to spontaneous resolution of gastrointestinal reactions: 2.2 h
[2]; fed period (range: 2.1–8.4 h)
  average time of occurrence of gastrointestinal reactions post-dosing: 4.3 h
[3]; method validation
  freeze-thaw stability: endured four freeze-thaw cycles
  stability at room temperature: at least 23.5 h
[3]; −20°C
  long-term stability: 89 days
[3]; −80°C
  long-term stability: 89 days
[4]; continuous dosing
  time to steady-state plasma concentrations: approximately 7 days
[4]; dose range 20–150 mg, single administration
  exposure increase with dose escalation: exposure increase ratio slightly exceeding the dose increase ratio
CDK4/6
  inhibition of CDK4/6 kinase activity: potent inhibitory effects
[5]
  inhibition of proliferation of MCF-7 cells: selectively inhibits proliferation
MCF-7 tumor; human MCF-7 xenograft model
  anti-tumor efficacy compared with Palbociclib: comparable anti-tumor efficacy to Palbociclib at reduced dosage levels
MCF-7 tumor; in vivo
  MCF-7 tumor growth: suppresses MCF-7 tumor growth in vivo
[6]
  preclinical toxicity findings: gastrointestinal toxicity and hematological/serum biochemical abnormalities were observed at medium-to-high dose levels
